According to patent US20080267942A1, “BENZAZEPIN-2(1H)-ONE DERIVATIVES” (Pfizer Limited, priority 2006, published 2008):
Where a name gives a salt, the structure may show the parent alone.

Columns and labels:
[1] = biological target: T1, porcine beta-2 adrenoceptor (Sus scrofa, UniProt Q28997); assay: cAMP assay in CHO cells transfected with the porcine beta-2 adrenoceptor (DiscoveRx Hit Hunter cAMP II); format: cell-based; details: CHO cells transfected with porcine beta-2 adrenoceptor, 30 minutes incubation with compound
T1 construct: expressed in transfected cells; host or cells: CHO cells
T1 sequence (Q28997 whole entry): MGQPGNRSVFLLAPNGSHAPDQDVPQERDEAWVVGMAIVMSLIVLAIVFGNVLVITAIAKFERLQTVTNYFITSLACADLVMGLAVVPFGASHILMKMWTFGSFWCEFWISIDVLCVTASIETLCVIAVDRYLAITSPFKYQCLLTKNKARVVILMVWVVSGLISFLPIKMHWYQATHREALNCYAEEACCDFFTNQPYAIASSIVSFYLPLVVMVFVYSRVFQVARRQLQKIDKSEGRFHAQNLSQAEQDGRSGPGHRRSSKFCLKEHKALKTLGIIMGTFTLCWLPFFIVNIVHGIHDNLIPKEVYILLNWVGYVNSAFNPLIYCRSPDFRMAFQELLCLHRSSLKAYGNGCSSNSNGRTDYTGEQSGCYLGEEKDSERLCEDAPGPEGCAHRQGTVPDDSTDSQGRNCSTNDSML
Method: (§1) CHO cells transfected with the bovine or porcine beta-2 adrenceptors were maintained in culture in DMEM/HAMS F12+10% FBS+2 mM glutamine+500 μg/ml geneticin (for the porcine receptor the medium was supplement with 1.5 mM HEPES) at 37° C. with a 5% CO2 atmosphere.
(§2) Cells were plated into 96 well viewplates in medium and incubated overnight at 37° C. with a 5% CO2 atmosphere. The cells were pre-incubated with 0.5 mM IBMX in PBS for 30 minutes prior to incubation with increasing concentrations of experimental compound (5×10^−12 to 10^−5M) for 30 minutes at 37° C. with a 5% CO2 atmosphere. At the end of the incubation time the compound was removed and the cells assayed for cAMP using the DiscoveRx Hit Hunter cAMP II™ assay kit.
(§3) Duplicate samples were run for each experimental compound and the data generated was analysed using EC50 analysis software in Graphpad Prism.

[2] = biological target: T2, bovine beta-2 adrenoceptor (Bos taurus, UniProt Q28044); assay: cAMP assay in CHO cells transfected with the bovine beta-2 adrenoceptor (DiscoveRx Hit Hunter cAMP II); format: cell-based; details: CHO cells transfected with bovine beta-2 adrenoceptor, 30 minutes incubation with compound
T2 construct: expressed in transfected cells; host or cells: CHO cells
T2 sequence (Q28044 whole entry): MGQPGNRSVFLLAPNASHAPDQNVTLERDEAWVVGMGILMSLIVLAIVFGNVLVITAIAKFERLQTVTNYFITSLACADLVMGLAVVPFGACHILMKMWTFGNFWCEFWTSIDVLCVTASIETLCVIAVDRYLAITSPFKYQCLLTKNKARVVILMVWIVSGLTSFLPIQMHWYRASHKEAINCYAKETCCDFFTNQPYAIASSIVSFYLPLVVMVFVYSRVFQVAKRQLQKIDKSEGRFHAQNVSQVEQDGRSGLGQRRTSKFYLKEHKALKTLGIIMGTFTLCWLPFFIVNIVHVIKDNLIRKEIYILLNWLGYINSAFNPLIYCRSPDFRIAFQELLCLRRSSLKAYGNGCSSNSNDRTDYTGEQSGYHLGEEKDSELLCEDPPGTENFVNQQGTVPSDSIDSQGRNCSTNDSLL
Method: as §1, §2, §3

Structure (SMILES) | EC50 [1] [nM] | EC50 [2] [nM]
CC(CCc1ccc(N)nc1)N[C@@H]1CCn2c(=O)[nH]c3cccc(c32)[C@H]1O (single isomer, unassigned) [Example 46] | 2.8 | 3
Cc1ccc2[nH]cc(CCC(C)N[C@@H]3CCn4c(=O)[nH]c5cccc(c54)[C@H]3O)c2c1 (mixture of isomers) [Example 33, 7-Hydroxy-6-{[1-methyl-3-(5-methyl-1H-indol-3-yl)propyl]amino}-4,5,6,7-tetrahydroimidazo[4,5,1-jk][1]benzazepin-2(1H)-one] | 24 | 74
CC(CCc1ccccn1)NC1CCn2c(=O)[nH]c3cccc(c32)C1O (centres unmarked) [Example 13, 7-Hydroxy-6-[(1-methyl-3-pyridin-2-ylpropyl)amino]-4,5,6,7-tetrahydroimidazo[4,5,1-jk][1]benzazepin-2(1H)-one] | 184 | 356
CC(CCc1n[nH]c2ccccc12)N[C@@H]1CCn2c(=O)[nH]c3cccc(c32)[C@H]1O (single isomer, unassigned) [Example 58] | 33 | 8.3
CC(CCc1cncs1)N[C@@H]1CCn2c(=O)[nH]c3cccc(c32)[C@H]1O (single isomer, unassigned) [Example 6a, 7-Hydroxy-6-{[1-methyl-3-(1,3-thiazol-5-yl)propyl]amino}-4,5,6,7-tetrahydroimidazo[4,5,1-jk][1]benzazepin-2(1H)-one] | > 10000 | 22.9
CC(CCc1c[nH]c2ccc(C#N)cc12)N[C@@H]1CCn2c(=O)[nH]c3cccc(c32)[C@H]1O (mixture of isomers) [Example 29, 3-(3-{[7-Hydroxy-2-oxo-1,2,4,5,6,7-hexahydroimidazo[4,5,1-jk][1]benzazepin-6-yl]amino}butyl)-1H-indole-5-carbonitrile] | 127 | 83
CC(CCc1cc(F)cc2cc[nH]c12)N[C@@H]1CCn2c(=O)[nH]c3cccc(c32)[C@H]1O (mixture of isomers) [Example 1b, 6-{[3-(5-Fluoro-1H-indol-7-yl)-1-methylpropyl]amino}-7-hydroxy-4,5,6,7-tetrahydroimidazo[4,5,1-jk][1]benzazepin-2(1H)-one] | 1 | 0.7
CC(CCc1c[nH]c2ccccc12)NC1CCn2c(=O)[nH]c3cccc(c32)C1O (single isomer, unassigned) [Example 4b, 7-Hydroxy-6-{[3-(1H-indol-3-yl)-1-methylpropyl]amino}-4,5,6,7-tetrahydroimidazo[4,5,1-jk][1]benzazepin-2(1H)-one] | 6.9 | 3.8
CC(CCc1cscn1)N[C@@H]1CCn2c(=O)[nH]c3cccc(c32)[C@H]1O (mixture of isomers) [Example 26, 7-Hydroxy-6-{[1-methyl-3-(1,3-thiazol-4-yl)propyl]amino}-4,5,6,7-tetrahydroimidazo[4,5,1-jk][1]benzazepin-2(1H)-one] | 742 | 345
CC(CC(C)(C)c1cn(C)c2ccccc12)N[C@@H]1CCn2c(=O)[nH]c3cccc(c32)[C@H]1O (mixture of isomers) [Example 20, 6-{[1,3-Dimethyl-3-(1-methyl-1H-indol-3-yl)butyl]amino}-7-hydroxy-4,5,6,7-tetrahydroimidazo[4,5,1-jk][1]benzazepin-2(1H)-one] | 36 | 157
CC(/C=C/c1ccc2[nH]cnc2c1)N[C@@H]1CCn2c(=O)[nH]c3cccc(c32)[C@H]1O (mixture of isomers) [Example 42, 6-{[3-(1H-Benzimidazol-5-yl)-1-methylprop-2-en-1-yl]amino}-7-hydroxy-4,5,6,7-tetrahydroimidazo[4,5,1-jk][1]benzazepin-2(1H)-one] | 22 | 23
CC(CCn1cnc2ccccc21)N[C@@H]1CCn2c(=O)[nH]c3cccc(c32)[C@H]1O (single isomer, unassigned) [Example 51] | 0.9 | 0.6
Cc1cc(C)n(CCC(C)N[C@@H]2CCn3c(=O)[nH]c4cccc(c43)[C@H]2O)n1 (single isomer, unassigned) [Example 64] | 188 | 169
CC(CCc1cncs1)N[C@@H]1CCn2c(=O)[nH]c3cccc(c32)[C@H]1O (single isomer, unassigned) [Example 49] | 6.4 | 4.7
CCOC(=O)c1[nH]c2ccccc2c1CC(C)NC1CCn2c(=O)[nH]c3cccc(c32)C1O (single isomer, unassigned) [Example 16, Ethyl 3-(2-{[7-hydroxy-2-oxo-1,2,4,5,6,7-hexahydroimidazo[4,5,1-jk][1]benzazepin-6-yl]amino}propyl)-1H-indole-2-carboxylate] | 10 | 26
CC(CCc1cn(Cc2ccccc2)c2ccccc12)N[C@@H]1CCn2c(=O)[nH]c3cccc(c32)[C@H]1O (mixture of isomers) [Example 18, 6-{[3-(1-Benzyl-1H-indol-3-yl)-1-methylpropyl]amino}-7-hydroxy-4,5,6,7-tetrahydroimidazo[4,5,1-jk][1]benzazepin-2(1H)-one] | 98 | 218

Structure (SMILES) | EC50 [1] [nM] | EC50 [2] [nM]
CC(CCc1cccc2cc[nH]c12)N[C@@H]1CCn2c(=O)[nH]c3cccc(c32)[C@H]1O (single isomer, unassigned) [Example 38c, 7-Hydroxy-6-{[3-(1H-indol-7-yl)-1-methylpropyl]amino}-4,5,6,7-tetrahydroimidazo[4,5,1-jk][1]benzazepin-2(1H)-one] | 174 | 137
CC(CCn1ccnc1)N[C@@H]1CCn2c(=O)[nH]c3cccc(c32)[C@H]1O (mixture of isomers) [Example 30, 7-Hydroxy-6-{[3-(1H-imidazol-1-yl)-1-methylpropyl]amino}-4,5,6,7-tetrahydroimidazo[4,5,1-jk][1]benzazepin-2(1H)-one] | 3.8 | 48
CC(CCc1c[nH]c2ccc(OCc3ccccc3)cc12)N[C@@H]1CCn2c(=O)[nH]c3cccc(c32)[C@H]1O (mixture of isomers) [Example 17, 6-({3-[5-(Benzyloxy)-1H-indol-3-yl]-1-methylpropyl}amino)-7-hydroxy-4,5,6,7-tetrahydroimidazo[4,5,1-jk][1]benzazepin-2(1H)-one] | 33 | 25
CC(Cc1ccco1)NC1CCn2c(=O)[nH]c3cccc(c32)C1O (centres unmarked) [Example 11, 6-{[2-(2-Furyl)-1-methylethyl]amino}-7-hydroxy-4,5,6,7-tetrahydroimidazo[4,5,1-jk][1]benzazepin-2(1H)-one] | 64 | 108
CC(CCc1cccnc1N)N[C@@H]1CCn2c(=O)[nH]c3cccc(c32)[C@H]1O (single isomer, unassigned) [Example 44] | 1.8 | 1.3
CC(CC(C)(C)c1c[nH]c2ccccc12)N[C@@H]1CCn2c(=O)[nH]c3cccc(c32)[C@H]1O (mixture of isomers) [Example 8, 7-Hydroxy-6-{[3-(1H-indol-3-yl)-1,3-dimethylbutyl]amino}-4,5,6,7-tetrahydroimidazo[4,5,1-jk][1]benzazepin-2(1H)-one] | 6.1 | 114
CC(CCc1c[nH]c2ccc(F)cc12)N[C@@H]1CCn2c(=O)[nH]c3cccc(c32)[C@H]1O (mixture of isomers) [Example 5b, Hydrochloride salt of 6-{[3-[5-Fluoro-1H-indol-3-yl]-1-methylpropyl]amino}-7-hydroxy-4,5,6,7-tetrahydroimidazo[4,5,1-jk][1]benzazepin-2(1)-one] | 2.5 | 1.1
CC(CCc1cc(F)cc2cc[nH]c12)N[C@@H]1CCn2c(=O)[nH]c3cccc(c32)[C@H]1O (mixture of isomers) [Example 1a, 6-{[3-(5-Fluoro-1H-indol-7-yl)-1-methylpropyl]amino}-7-hydroxy-4,5,6,7-tetrahydroimidazo[4,5,1-jk][1]benzazepin-2(1H)-one] | 1.4 | 0.5
CC(CCc1cncc(N)c1)N[C@@H]1CCn2c(=O)[nH]c3cccc(c32)[C@H]1O (single isomer, unassigned) [Example 45] | 1.1 | 1.4
CC(CCc1cnsc1)N[C@@H]1CCn2c(=O)[nH]c3cccc(c32)[C@H]1O (single isomer, unassigned) [Example 47] | 0.9 | 0.6
CC(CCn1cccn1)NC1CCn2c(=O)[nH]c3cccc(c32)C1O (centres unmarked) [Example 15, 7-Hydroxy-6-{[1-methyl-3-(1H-pyrazol-1-yl)propyl]amino}-4,5,6,7-tetrahydroimidazo[4,5,1-jk][1]benzazepin-2(1H)-one] | 98 | 161
CC(CCc1c[nH]c2ccc(Cl)cc12)N[C@@H]1CCn2c(=O)[nH]c3cccc(c32)[C@H]1O (single isomer, unassigned) [Example 21b, 6-{[3-(5-Chloro-1H-indol-3-yl)-1-methylpropyl]amino}-7-hydroxy-4,5,6,7-tetrahydroimidazo[4,5,1-jk][1]benzazepin-2(1H)-one] | 11 | 15
Cc1nn(C)cc1CCC(C)N[C@@H]1CCn2c(=O)[nH]c3cccc(c32)[C@H]1O (single isomer, unassigned) [Example 59] | 17 | 20
C[C@H](CCc1c[nH]c2ccccc12)N[C@@H]1CCn2c(=O)[nH]c3cccc(c32)[C@H]1O [Example 4f, 7-Hydroxy-6-{[3-(1H-indol-3-yl)-1-methylpropyl]amino}-4,5,6,7-tetrahydroimidazo[4,5,1-jk][1]benzazepin-2(1H)-one] | 2.5 | 1.7
CC(CCc1c[nH]c2cc(C#N)ccc12)N[C@@H]1CCn2c(=O)[nH]c3cccc(c32)[C@H]1O (single isomer, unassigned) [Example 60] | 13 | 23
